Assay: HCV replicon assay (luciferase) in ET (Huh-lucubineo-ET) cell line
Format: cell-based
Settings: Hepatitis C virus; tested at 10 μM; inhibition of replication relative to no compound control; ET replicon cells, luciferase 48-72 hours; read-out: % inhition at 10 μM

| SMILES | inhibition at 10 µM |
| --- | --- |
| CCCOc1cnc(-c2cc(Cn3cc4nc(-c5cccc(F)c5F)nc-4cn3)on2)cn1 [Compound 315, 2-(2,3-Difluoro-phenyl)-5-[3-(5-propoxy-pyrazin-2-yl)-isoxazol-5-ylmethyl]-5H-imidazo[4,5-d]pyridazine] | 99.3% |
| CCCC(F)(F)c1ccc(-c2cc(Cn3cc4nc(-c5cccc(F)c5F)nc-4cn3)on2)cc1 [Compound 316, 5-{3-[4-(1,1-Difluoro-butyl)-phenyl]-isoxazol-5-ylmethyl}-2-(2,3-difluoro-phenyl)-5H-imidazo[4,5-d]pyridazine] | 99.7% |
| Cc1ccc(-c2cc(Cn3cc4nc(-c5cccc(F)c5F)nc-4cn3)no2)nn1 [Compound 318, 2-(2,3-Difluoro-phenyl)-5-[5-(6-methyl-pyridazin-3-yl)-isoxazol-3-ylmethyl]-5H-imidazo[4,5-d]pyridazine] | 50% |
| Fc1cccc(-c2nc3cnn(Cc4cc(-c5ccc(OCC6CCOCC6)cc5C(F)(F)F)no4)cc-3n2)c1F [Compound 319, 2-(2,3-Difluoro-phenyl)-5-{3-[4-(tetrahydro-pyran-4-ylmethoxy)-2-trifluoromethyl-phenyl]-isoxazol-5-ylmethyl}-5H-imidazo[4,5-d]pyridazine] | 100% |
| COCCOc1ccc(-c2cc(Cn3cc4nc(-c5cccc(F)c5F)nc-4cn3)on2)c(C(F)(F)F)c1 [Compound 320, 2-(2,3-Difluoro-phenyl)-5-{3-[4-(2-methoxy-ethoxy)-2-trifluoromethyl-phenyl]-isoxazol-5-ylmethyl}-5H-imidazo[4,5-d]pyridazine] | 99.8% |
| Fc1cccc(-c2nc3cnn(Cc4cc(-c5ccc(-c6cnoc6)cc5C(F)(F)F)no4)cc-3n2)c1F [Compound 321, 2-(2,3-Difluoro-phenyl)-5-[3-(4-isoxazol-4-yl-2-trifluoromethyl-phenyl)-isoxazol-5-ylmethyl]-5H-imidazo[4,5-d]pyridazine] | 82.5% |
| Fc1cccc(-c2nc3cnn(Cc4cc(-c5ccc(-c6cn[nH]c6)cc5C(F)(F)F)no4)cc-3n2)c1F [Compound 322, 2-(2,3-Difluoro-phenyl)-5-{3-[4-(1H-pyrazol-4-yl)-2-trifluoromethyl-phenyl]-isoxazol-5-ylmethyl}-5H-imidazo[4,5-d]pyridazine] | 94.9% |
| CC(C)Cc1ccc(-c2cc(Cn3cc4nc(-c5cccc(F)c5F)nc-4cn3)on2)c(C(F)(F)F)c1 [Compound 323, 2-(2,3-Difluoro-phenyl)-5-[3-(4-isobutyl-2-trifluoromethyl-phenyl)-isoxazol-5-ylmethyl]-5H-imidazo[4,5-d]pyridazine] | 100% |
| O=C(COc1ccc(-c2cc(Cn3cc4nc(-c5cccc(F)c5F)nc-4cn3)on2)c(C(F)(F)F)c1)N1CCCCC1 [Compound 325, 2-(4-{5-[2-(2,3-Difluoro-phenyl)-imidazo[4,5-d]pyridazin-5-ylmethyl]-isoxazol-3-yl}-3-trifluoromethyl-phenoxy)-1-piperidin-1-yl-ethanone] | 8.2% |
| Fc1cccc(-c2nc3cnn(Cc4cc(-c5ccc(OCCCC(F)(F)F)cc5)no4)cc-3n2)c1F [Compound 326, 2-(2,3-Difluoro-phenyl)-5-{3-[4-(4,4,4-trifluoro-butoxy)-phenyl]-isoxazol-5-ylmethyl}-5H-imidazo[4,5-d]pyridazine] | 99.3% |
| C#CCOc1ccc(-c2cc(Cn3cc4nc(-c5cccc(F)c5F)nc-4cn3)on2)cc1 [Compound 327] | 99.7% |
| Fc1cccc(-c2nc3cnn(Cc4cc(-c5ccc(-c6nnn[nH]6)cc5)no4)cc-3n2)c1F [Compound 328, 2-(2,3-Difluoro-phenyl)-5-{3-[4-(1H-tetrazol-5-yl)-phenyl]-isoxazol-5-ylmethyl}-5H-imidazo[4,5-d]pyridazine] | 55.5% |
| Fc1cccc(-c2nc3cnn(Cc4cc(-c5ccc(OCC6CCOC6)cc5C(F)(F)F)no4)cc-3n2)c1F (stereo not drawn) [Compound 329, 2-(2,3-Difluoro-phenyl)-5-{3-[4-(tetrahydro-furan-3-ylmethoxy)-2-trifluoromethyl-phenyl]-isoxazol-5-ylmethyl}-5H-imidazo[4,5-d]pyridazine] | 99.5% |
| Fc1cccc(-c2nc3cnn(Cc4cc(-c5ccc(CCCC(F)(F)F)cc5)no4)cc-3n2)c1F [Compound 330, 2-(2,3-Difluoro-phenyl)-5-{3-[4-(4,4,4-trifluoro-butyl)-phenyl]-isoxazol-5-ylmethyl}-5H-imidazo[4,5-d]pyridazine] | 99.7% |
| Fc1cccc(-c2nc3cnn(Cc4cc(-c5ccc(CCC(F)(F)F)cc5)no4)cc-3n2)c1F [Compound 331, 2-(2,3-Difluoro-phenyl)-5-{3-[4-(3,3,3-trifluoro-propyl)-phenyl]-isoxazol-5-ylmethyl}-5H-imidazo[4,5-d]pyridazine] | 99.9% |
| C[Si](C)(C)C#Cc1ccc(-c2cc(Cn3cc4nc(-c5cccc(F)c5F)nc-4cn3)on2)cc1 [Compound 332, 2-(2,3-Difluoro-phenyl)-5-[3-(4-trimethylsilanylethynyl-phenyl)-isoxazol-5-ylmethyl]-5H-imidazo[4,5-d]pyridazine] | 99% |
| CC(C)(C)C#Cc1ccc(-c2cc(Cn3cc4nc(-c5cccc(F)c5F)nc-4cn3)on2)cc1 [Compound 333, 2-(2,3-Difluoro-phenyl)-5-{3-[4-(3,3-dimethyl-but-1-ynyl)-phenyl]-isoxazol-5-ylmethyl}-5H-imidazo[4,5-d]pyridazine] | 86.4% |
| C#Cc1ccc(-c2cc(Cn3cc4nc(-c5cccc(F)c5F)nc-4cn3)on2)cc1 [Compound 334, 2-(2,3-Difluoro-phenyl)-5-[3-(4-ethynyl-phenyl)-isoxazol-5-ylmethyl]-5H-imidazo[4,5-d]pyridazine] | 99% |
| Fc1cccc(-c2nc3cnn(Cc4cc(-c5ccc(C#CC6CCCC6)cc5)no4)cc-3n2)c1F [Compound 335, 5-[3-(4-Cyclopentylethynyl-phenyl)-isoxazol-5-ylmethyl]-2-(2,3-difluoro-phenyl)-5H-imidazo[4,5-d]pyridazine] | 96.7% |
| Fc1cccc(-c2nc3cnn(Cc4cc(-c5ccc(C(F)F)cc5)no4)cc-3n2)c1F [Compound 336, 5-[3-(4-Difluoromethyl-phenyl)-isoxazol-5-ylmethyl]-2-(2,3-difluoro-phenyl)-5H-imidazo[4,5-d]pyridazine] | 99.7% |
| Fc1cccc(-c2nc3cnn(Cc4cc(-c5ccccc5)no4)cc-3n2)c1F [Compound 337, 2-(2,3-Difluoro-phenyl)-5-(3-phenyl-isoxazol-5-ylmethyl)-5H-imidazo[4,5-d]pyridazine] | 68.5% |
| C=Cc1ccc(-c2cc(Cn3cc4nc(-c5cccc(F)c5F)nc-4cn3)on2)cc1 [Compound 338, 2-(2,3-Difluoro-phenyl)-5-[3-(4-vinyl-phenyl)-isoxazol-5-ylmethyl]-5H-imidazo[4,5-d]pyridazine] | 99.9% |
| Fc1cccc(-c2nc3cnn(Cc4cc(-c5ccc(C#CC6CC6)cc5)no4)cc-3n2)c1F [Compound 339, 5-[3-(4-Cyclopropylethynyl-phenyl)-isoxazol-5-ylmethyl]-2-(2,3-difluoro-phenyl)-5H-imidazo[4,5-d]pyridazine] | 99.8% |
| Oc1ccc(-c2cc(Cn3cc4nc(-c5cccc(F)c5F)nc-4cn3)on2)c(C(F)(F)F)c1 [Compound 340, 4-{5-[2-(2,3-Difluoro-phenyl)-imidazo[4,5-d]pyridazin-5-ylmethyl]-isoxazol-3-yl}-3-trifluoromethyl-phenol] | 0.116% |

Reference: US20090197880A1 (Genelabs Technologies, Inc., priority 2007, published 2009)
